Data taken from patent publication US8362015B2, “Aminoacyl prodrug derivatives and medicaments for treatment of thromboembolic disorders” (Bayer Intellectual Property GmbH, priority 2006, dated 2013).
Where a name gives a salt, the structure may show the parent alone.

How the values were obtained:
[1] = Stability in buffer at various pH values (HPLC, unchanged test substance); format: physicochemical; conditions: acetonitrile/buffer 1:1
Experimental: 0.3 mg of the test substance is weighed into a 2 ml HPLC vial and 0.5 ml of acetonitrile is added. The substance is dissolved by putting the sample vessel in an ultrasonic bath for about 10 seconds. Then 0.5 ml of the respective buffer solution is added, and the sample is again treated in the ultrasonic bath.
Buffer solutions employed: • pH 4.0: 1 liter of Millipore water is adjusted to pH 4.0 with 1 N hydrochloric acid; • pH 7.4: 90 g of sodium chloride, 13.61 g of potassium dihydrogen phosphate and 83.35 g of 1 M sodium hydroxide solution are made up to 1 liter with Millipore water and then diluted 1:10.
5 μl portions of the test solution are analysed by HPLC for their content of unchanged test substance every hour over a period of 24 hours at 25° C. The percentage areas of the appropriate peaks are used for quantification.
Agilent 1100 with DAD (G1314A), binary pump (G1312A), autosampler (G1329A), column oven (G1316A), thermostat (G1330A); column: Kromasil 100 C18, 60 mm×2.1 mm, 3.5 μm; column temperature: 30° C.; eluent A: water+5 ml of perchloric acid/liter, eluent B: acetonitrile; gradient: 0-1.0 min 98% A, 2% B→1.0-9.0 min 2% A, 98% B; 9.0-13.0 min 2% A, 98% B; 13.0-13.5 min 98% A, 2% B; 13.5-15.0 98% A, 2% B; flow rate: 0.75 ml/min; UV detection: 210 nm.
The ratios of the peak areas (F) at the respective time points in relation to the peak areas at the starting time are shown in Table 2 for representative exemplary embodiments: […]

[2] = Determination of the solubility in dilute hydrochloric acid (pH 4); format: physicochemical; conditions: aqueous buffer, thermodynamic from solid, room temperature, shaken 24 h
Experimental: The test substance is suspended in water or dilute hydrochloric acid (pH 4). This suspension is shaken at room temperature for 24 h. After ultracentrifugation at 224 000 g for 30 min, the supernatant is diluted with DMSO and analysed by HPLC. A two-point calibration plot of the test compound in DMSO is used for quantification.
Agilent 1100 with DAD (G1315A), quat. pump (G1311A), autosampler CTC HTS PAL, degasser (G1322A) and column thermostat (G1316A); column: Kromasil C18, 60×2.1 mm, 3.5 μm; temperature: 30° C.; eluent A: water+5 ml of perchloric acid/liter, eluent B: acetonitrile; flow rate: 0.7 ml/min; gradient: 0-0.5 min 98% A, 2% B; ramp 0.5-4.5 min 10% A, 90% B; 4.5-6 min 10% A, 90% B; ramp 6.5-6.7 min 98% A, 2% B; 6.7-7.5 min 98% A, 2% B.

## NCC(=O)OCCCCC(=O)N(C[C@H]1CN(c2ccc(N3CCOCC3=O)cc2)C(=O)O1)C(=O)c1ccc(Cl)s1 [Example 2, hydrochloride]
[1]; buffer pH 4, 25° C.
  % test substance after 4 h [F(t = 4 h) × 100/F(t = 0 h)]: 101%
  % test substance after 24 h [F(t = 24 h) × 100/F(t = 0 h)]: 101%
[1]; buffer pH 7.4, 25° C.
  % test substance after 4 h [F(t = 4 h) × 100/F(t = 0 h)]: 99%
  % test substance after 24 h [F(t = 24 h) × 100/F(t = 0 h)]: 94%

## CC(C)[C@H](N)C(=O)OCCCCC(=O)N(C[C@H]1CN(c2ccc(N3CCOCC3=O)cc2)C(=O)O1)C(=O)c1ccc(Cl)s1 [Example 3, hydrochloride]
[1]; buffer pH 4, 25° C.
  % test substance after 4 h [F(t = 4 h) × 100/F(t = 0 h)]: 100%
  % test substance after 24 h [F(t = 24 h) × 100/F(t = 0 h)]: 101%
[1]; buffer pH 7.4, 25° C.
  % test substance after 4 h [F(t = 4 h) × 100/F(t = 0 h)]: 100%
  % test substance after 24 h [F(t = 24 h) × 100/F(t = 0 h)]: 100%
[2]
  solubility at 24 h: > 3500 µg/mL

## CC(C)[C@H](N)C(=O)SCCCCC(=O)N(C[C@H]1CN(c2ccc(N3CCOCC3=O)cc2)C(=O)O1)C(=O)c1ccc(Cl)s1 [Example 4, S-(5-{[(5-Chloro-2-thienyl)carbonyl]({(5S)-2-oxo-3-[4-(3-oxomorpholin-4-yl)phenyl]-1,3-oxazolidin-5-yl}methyl)amino}-5-oxopentyl)(2S)-2-amino-3-methylbutanethioate hydrochloride]
[1]; buffer pH 4, 25° C.
  % test substance after 4 h [F(t = 4 h) × 100/F(t = 0 h)]: 100%
  % test substance after 24 h [F(t = 24 h) × 100/F(t = 0 h)]: 100%
[1]; buffer pH 7.4, 25° C.
  % test substance after 4 h [F(t = 4 h) × 100/F(t = 0 h)]: 92%
  % test substance after 24 h [F(t = 24 h) × 100/F(t = 0 h)]: 77%

## NCC(=O)SCCCCC(=O)N(C[C@H]1CN(c2ccc(N3CCOCC3=O)cc2)C(=O)O1)C(=O)c1ccc(Cl)s1 [Example 5, S-(5-{[(5-Chloro-2-thienyl)carbonyl]({(5S)-2-oxo-3-[4-(3-oxomorpholin-4-yl)phenyl]-1,3-oxazolidin-5-yl}methyl)amino}-5-oxopentyl)aminoethanethioate hydrochloride]
[1]; buffer pH 4, 25° C.
  % test substance after 4 h [F(t = 4 h) × 100/F(t = 0 h)]: 100%
  % test substance after 24 h [F(t = 24 h) × 100/F(t = 0 h)]: 100%
[1]; buffer pH 7.4, 25° C.
  % test substance after 4 h [F(t = 4 h) × 100/F(t = 0 h)]: 96%
  % test substance after 24 h [F(t = 24 h) × 100/F(t = 0 h)]: 84%

## NCCCC[C@H](N)C(=O)SCCCCC(=O)N(C[C@H]1CN(c2ccc(N3CCOCC3=O)cc2)C(=O)O1)C(=O)c1ccc(Cl)s1 [Example 6, S-(5-{[(5-Chloro-2-thienyl)carbonyl]({(5S)-2-oxo-3-[4-(3-oxomorpholin-4-yl)phenyl]-1,3-oxazolidin-5-yl}methyl)amino}-5-oxopentyl)(2S)-2,6-diaminohexanethioate dihydrochloride]
[1]; buffer pH 4, 25° C.
  % test substance after 4 h [F(t = 4 h) × 100/F(t = 0 h)]: 99%
  % test substance after 24 h [F(t = 24 h) × 100/F(t = 0 h)]: 99%
[1]; buffer pH 7.4, 25° C.
  % test substance after 4 h [F(t = 4 h) × 100/F(t = 0 h)]: 90%
  % test substance after 24 h [F(t = 24 h) × 100/F(t = 0 h)]: 53%

## C[C@H](N)C(=O)SCCCCC(=O)N(C[C@H]1CN(c2ccc(N3CCOCC3=O)cc2)C(=O)O1)C(=O)c1ccc(Cl)s1 [Example 7, S-(5-{[(5-Chloro-2-thienyl)carbonyl]({(5S)-2-oxo-3-[4-(3-oxomorpholin-4-yl)phenyl]-1,3-oxazolidin-5-yl}methyl)amino}-5-oxopentyl)(2S)-2-aminopropanethioate hydrochloride]
[1]; buffer pH 4, 25° C.
  % test substance after 4 h [F(t = 4 h) × 100/F(t = 0 h)]: 100%
  % test substance after 24 h [F(t = 24 h) × 100/F(t = 0 h)]: 101%
[1]; buffer pH 7.4, 25° C.
  % test substance after 4 h [F(t = 4 h) × 100/F(t = 0 h)]: 97%
  % test substance after 24 h [F(t = 24 h) × 100/F(t = 0 h)]: 84%
[2]
  solubility at 24 h: > 500 µg/mL

## CC(C)[C@H](N)C(=O)SCCCC(=O)N(C[C@H]1CN(c2ccc(N3CCOCC3=O)cc2)C(=O)O1)C(=O)c1ccc(Cl)s1 [Example 8, S-(5-{[(5-Chloro-2-thienyl)carbonyl]({(5S)-2-oxo-3-[4-(3-oxomorpholin-4-yl)phenyl]-1,3-oxazolidin-5-yl}methyl)amino}-4-oxobutyl)(2S)-2-amino-3-methylbutanethioate hydrochloride]
[1]; buffer pH 4, 25° C.
  % test substance after 4 h [F(t = 4 h) × 100/F(t = 0 h)]: 100%
  % test substance after 24 h [F(t = 24 h) × 100/F(t = 0 h)]: 100%
[1]; buffer pH 7.4, 25° C.
  % test substance after 4 h [F(t = 4 h) × 100/F(t = 0 h)]: 86%
  % test substance after 24 h [F(t = 24 h) × 100/F(t = 0 h)]: 48%

## O=C(NCCCCC(=O)N(C[C@H]1CN(c2ccc(N3CCOCC3=O)cc2)C(=O)O1)C(=O)c1ccc(Cl)s1)[C@@H]1CCCN1 [Example 11, N-(5-{[(5-Chloro-2-thienyl)carbonyl]({(5S)-2-oxo-3-[4-(3-oxomorpholin-4-yl)phenyl]-1,3-oxazolidin-5-yl}methyl)amino}-5-oxopentyl)-L-prolineamide hydrochloride]
[1]; buffer pH 4, 25° C.
  % test substance after 4 h [F(t = 4 h) × 100/F(t = 0 h)]: 101%
  % test substance after 24 h [F(t = 24 h) × 100/F(t = 0 h)]: 101%
[1]; buffer pH 7.4, 25° C.
  % test substance after 4 h [F(t = 4 h) × 100/F(t = 0 h)]: 100%
  % test substance after 24 h [F(t = 24 h) × 100/F(t = 0 h)]: 99%

## N[C@@H](Cc1c[nH]cn1)C(=O)NCCCCC(=O)N(C[C@H]1CN(c2ccc(N3CCOCC3=O)cc2)C(=O)O1)C(=O)c1ccc(Cl)s1 [Example 12, N-(5-{[(5-Chloro-2-thienyl)carbonyl]({(5S)-2-oxo-3-[4-(3-oxomorpholin-4-yl)phenyl]-1,3-oxazolidin-5-yl}methyl)amino}-5-oxopentyl)-L-histidinamide hydrochloride]
[1]; buffer pH 4, 25° C.
  % test substance after 4 h [F(t = 4 h) × 100/F(t = 0 h)]: 100%
  % test substance after 24 h [F(t = 24 h) × 100/F(t = 0 h)]: 101%
[1]; buffer pH 7.4, 25° C.
  % test substance after 4 h [F(t = 4 h) × 100/F(t = 0 h)]: 99%
  % test substance after 24 h [F(t = 24 h) × 100/F(t = 0 h)]: 93%
[2]
  solubility at 24 h: > 3000 µg/mL

## NCCCC[C@H](N)C(=O)NCCCCC(=O)N(C[C@H]1CN(c2ccc(N3CCOCC3=O)cc2)C(=O)O1)C(=O)c1ccc(Cl)s1 [Example 14, N-(5-{[(5-Chloro-2-thienyl)carbonyl]({(5S)-2-oxo-3-[4-(3-oxomorpholin-4-yl)phenyl]-1,3-oxazolidin-5-yl}methyl)amino}-5-oxopentyl)-L-lysinamide hydrochloride]
[1]; buffer pH 4, 25° C.
  % test substance after 4 h [F(t = 4 h) × 100/F(t = 0 h)]: 100%
  % test substance after 24 h [F(t = 24 h) × 100/F(t = 0 h)]: 100%
[1]; buffer pH 7.4, 25° C.
  % test substance after 4 h [F(t = 4 h) × 100/F(t = 0 h)]: 98%
  % test substance after 24 h [F(t = 24 h) × 100/F(t = 0 h)]: 88%
[2]
  solubility at 24 h: 1900 µg/mL
